The experiment relates to T1, purified tannase (PT); cell-associated tannase (CAT) of Sporidiobolus ruineniae A45.2.
T1 construct: gene tannin acyl hydrolase; native enzyme released from cell wall with Triton X-100, Q-Sepharose purified
Nature of the experiment: rhodanine assay of released gallic acid, A520; Michaelis-Menten fit. Type of experiment: biochemical, Rhodosporidiobolus ruineniae. The following applies: 100 mM sodium phosphate pH 6.5, 30 °C, 10 min; 0.25-12.5 mM methyl gallate; purified free enzyme.

The Km is the substrate concentration at which the rate is half of its maximum.

`COC(=O)c1cc(O)c(O)c(O)c1` [methyl gallate]: the Km was 2600 ± 400 µM.
